Legend:
[1] = tested on: Paddy rice; test: Test Example 2: herbicidal test for selectivity between rice and barnyardgrass (phytotoxicity); format: in vivo; settings: transplanted rice seedlings of 2-leaf stage, thirty days after application
Method: (§1) Into each 1/5000 are Wager pot, paddy soil was filled and puddled, then seeds of barnyardgrass were sown and grown until they reached 2-leaf stage. The barnyardgrass of 2-leaf stage was thinned out to adjust the number of barnyardgrass to fifteen per pot, and rice seedlings of 2-leaf stage were transplanted in the same pot. […] Thereafter, they were grown in a green house, and thirty days after the application, the herbicidal effects and phytotoxicity were evaluated in accordance with the standards as identified in Table 5.

[2] = tested on: barnyardgrass; test: Test Example 2: herbicidal test for selectivity between rice and barnyardgrass (herbicidal effects); format: in vivo, Echinochloa crus-galli L.; settings: barnyardgrass of 2-leaf stage, thirty days after application
Method: as §1

[3] = tested on: maize; test: Test Example 3: herbicidal test by upland soil treatment (phytotoxicity); format: in vivo; design: key: 5: Withered; 4.5: Herbicidal effect (or phytotoxicity) in a range of 90 to 99%; 4: Herbicidal effect (or phytotoxicity) in a range of 80 to 89%; 3.5: Herbicidal effect (or phytotoxicity) in a range of 70 to 79%; 3: Herbicidal effect (or phytotoxicity) in a range of 60 to 69%; 2.5: Herbicidal effect (or phytotoxicity) in a range of 50 to 59%; 2: Herbicidal effect (or phytotoxicity) in a range of 40 to 49%; 1.5: Herbicidal effect (or phytotoxicity) in a range of 30 to 39%; 1: Herbicidal effect (or phytotoxicity) in a range of 20 to 29%; 0.5: Herbicidal effect (or phytotoxicity) in a range of 1 to 19%; 0: No herbicidal effect (or no phytotoxicity); settings: evaluated twenty days after application
Excerpt: (§2) Into each plastic pot of 600 cm^2, upland soil was filled, then seeds of barnyardgrass, crabgrass, green foxtail, redroot pigweed, rice flatsedge, rice, wheat, maize, soybean, cotton and sugar beet were sown, and they were covered with soil. A predetermined amount of the wettable powder prepared from the test compound in accordance with Formulation Example 3 and diluted with water, was uniformly applied to the surface of the soil at an application rate of 1000 liter/hectare by means of a small size spray. They were grown in a greenhouse, and twenty days after the application, the herbicidal effects and phytotoxicity were evaluated in accordance with the standards as identified in Table 5.

[4] = tested on: rice; test: as above; format: in vivo; design: key: 5: Withered; 4.5: Herbicidal effect (or phytotoxicity) in a range of 90 to 99%; 4: Herbicidal effect (or phytotoxicity) in a range of 80 to 89%; 3.5: Herbicidal effect (or phytotoxicity) in a range of 70 to 79%; 3: Herbicidal effect (or phytotoxicity) in a range of 60 to 69%; 2.5: Herbicidal effect (or phytotoxicity) in a range of 50 to 59%; 2: Herbicidal effect (or phytotoxicity) in a range of 40 to 49%; 1.5: Herbicidal effect (or phytotoxicity) in a range of 30 to 39%; 1: Herbicidal effect (or phytotoxicity) in a range of 20 to 29%; 0.5: Herbicidal effect (or phytotoxicity) in a range of 1 to 19%; 0: No herbicidal effect (or no phytotoxicity); settings: evaluated twenty days after application
Excerpt: as §2

[5] = tested on: cotton; test: as above; format: in vivo; design: key: 5: Withered; 4.5: Herbicidal effect (or phytotoxicity) in a range of 90 to 99%; 4: Herbicidal effect (or phytotoxicity) in a range of 80 to 89%; 3.5: Herbicidal effect (or phytotoxicity) in a range of 70 to 79%; 3: Herbicidal effect (or phytotoxicity) in a range of 60 to 69%; 2.5: Herbicidal effect (or phytotoxicity) in a range of 50 to 59%; 2: Herbicidal effect (or phytotoxicity) in a range of 40 to 49%; 1.5: Herbicidal effect (or phytotoxicity) in a range of 30 to 39%; 1: Herbicidal effect (or phytotoxicity) in a range of 20 to 29%; 0.5: Herbicidal effect (or phytotoxicity) in a range of 1 to 19%; 0: No herbicidal effect (or no phytotoxicity); settings: evaluated twenty days after application
Excerpt: as §2

[6] = tested on: wheat; test: as above; format: in vivo; design: key: 5: Withered; 4.5: Herbicidal effect (or phytotoxicity) in a range of 90 to 99%; 4: Herbicidal effect (or phytotoxicity) in a range of 80 to 89%; 3.5: Herbicidal effect (or phytotoxicity) in a range of 70 to 79%; 3: Herbicidal effect (or phytotoxicity) in a range of 60 to 69%; 2.5: Herbicidal effect (or phytotoxicity) in a range of 50 to 59%; 2: Herbicidal effect (or phytotoxicity) in a range of 40 to 49%; 1.5: Herbicidal effect (or phytotoxicity) in a range of 30 to 39%; 1: Herbicidal effect (or phytotoxicity) in a range of 20 to 29%; 0.5: Herbicidal effect (or phytotoxicity) in a range of 1 to 19%; 0: No herbicidal effect (or no phytotoxicity); settings: evaluated twenty days after application
Excerpt: as §2

[7] = tested on: soybean; test: as above; format: in vivo; design: key: 5: Withered; 4.5: Herbicidal effect (or phytotoxicity) in a range of 90 to 99%; 4: Herbicidal effect (or phytotoxicity) in a range of 80 to 89%; 3.5: Herbicidal effect (or phytotoxicity) in a range of 70 to 79%; 3: Herbicidal effect (or phytotoxicity) in a range of 60 to 69%; 2.5: Herbicidal effect (or phytotoxicity) in a range of 50 to 59%; 2: Herbicidal effect (or phytotoxicity) in a range of 40 to 49%; 1.5: Herbicidal effect (or phytotoxicity) in a range of 30 to 39%; 1: Herbicidal effect (or phytotoxicity) in a range of 20 to 29%; 0.5: Herbicidal effect (or phytotoxicity) in a range of 1 to 19%; 0: No herbicidal effect (or no phytotoxicity); settings: evaluated twenty days after application
Excerpt: as §2

| SMILES | Phytotoxicity Paddy rice ([1]; Dose 0.25 kg/Ha) | Phytotoxicity Paddy rice ([1]; Dose 0.5 kg/Ha) | Herbicidal effects Barnyard grass ([2]; Dose 0.25 kg/Ha) | Herbicidal effects Barnyard grass ([2]; Dose 0.5 kg/Ha) | Phytotoxicity Maize ([3]; Dose 1 kg/HA) | Phytotoxicity Maize ([3]; Dose 4 kg/HA) | Phytotoxicity Rice ([4]; Dose 1 kg/HA) | Phytotoxicity Rice ([4]; Dose 4 kg/HA) | Phytotoxicity Cotton ([5]; Dose 1 kg/HA) | Phytotoxicity Cotton ([5]; Dose 4 kg/HA) | Phytotoxicity Wheat ([6]; Dose 1 kg/HA) | Phytotoxicity Wheat ([6]; Dose 4 kg/HA) | Phytotoxicity Soybean ([7]; Dose 1 kg/HA) | Phytotoxicity Soybean ([7]; Dose 4 kg/HA) | Phytotoxicity Paddy rice ([1]; Dose 1 kg/Ha) | Herbicidal effects Barnyard grass ([2]; Dose 1 kg/Ha) |
| --- | --- | --- | --- | --- | --- | --- | --- | --- | --- | --- | --- | --- | --- | --- | --- | --- |
| CC(C)N(C)C(=O)NOc1cc(Cl)cc(Cl)c1 [Compound No. 186, 3-(3,5-Dichlorophenoxy)-1-isopropyl-1-methyl urea trichloroacetate] | 0 | 1 (Herbicidal effect (or phytotoxicity) in a range of 20 to 29%) | 5 | 5 | – | – | – | – | – | – | – | – | – | – | – | – |
| CN(C)C(=O)NOc1cc(Cl)ccc1Cl [Compound No. 1, 3-(2,5-Dichlorophenoxy)-1,1-dimethyl urea] | 0 | 0 | 5 | 5 | 0 | 0 | 0 | 0 | 0 | 0 | 0 | 0 | 0 | 0 | 1 (Herbicidal effect (or phytotoxicity) in a range of 20 to 29%) | 5 |

Source: patent EP0183174A2, “Substituted phenoxy urea, processes for its preparation and herbicide containing it as active ingredient” (KUMIAI CHEMICAL INDUSTRY CO., LTD., priority 1984, dated 1986)
